Assay results taken from patent US9809593B2, “Use of tetramic acid derivatives as nematicides” (Syngenta Participations AG, priority 2013, dated 2017).

Assays:
Format in all cases: in vivo
[1] = test system: Heterodera schachtii Schmidt (SBCN); test: Pot trial: seed treatment and foliar spray in sugar beets, tuber weight; settings: sugar beet, n = 8-10, harvest after 4 months
Excerpt: POT TRIALS: Seed treatments and Foliar spray in sugar beets (Beta Vulgaris cv Impulse) against root nematodes Heterodera schachtii Schmidt (SBCN) (origin Münster, Germany)
15 7-L pots were used per treatment containing 7-L soil with an organic matter content of 2% (drench soil+sand). Seeds were planted into pot soil 1 cm deep and allowed to germinate and grow into young plants in a polytunnel. During the winter months, the pots were placed in a greenhouse. The pots were artificially infested with nematodes (SBCN) when preparing the soil for each pot and just before planting.
(§1) APPLICATION: Compounds A and comparison Spirotetramat were sprayed as a normal foliar spray with hollow cone nozzles directed onto the plants. The compounds A and Spirotetramat used were formulated as a suspension concentrate formulation at a dose rate of 100 g/ha. The first foliar spray was applied 14 days after sowing. A second foliar spray was carried out 3 weeks later.
Abamectin was used as a seed treatment. AVICTA® 500 FS from Syngenta AG was used at a rate of 500 g/L as a flowable concentrate (FS) formulation and applied to the seeds as a slurry to provide a rate of 0.6 mg of active ingredient per seed.
ASSESSMENT: Sugar beet plants were harvested after 4 months according to the prevailing temperatures and weather conditions. Sugar beet tuber weights were assessed according to standard practice.

[2] = test system: Meloidogyne incognita (RKNi); test: Pot trial: foliar spray in cotton against root-knot nematodes; settings: for performance in comparison to prior art tetramic acid compound spirotetramat: foliar 100 g/ha
Excerpt: POT TRIALS: Foliar spray in Cotton against nematodes Meloidogyne incognita (RKNi) using
12 1-L Clay pots were used per treatment. Cotton: Fibre Max 966 seeds were planted into pots and allowed to germinate and grow into young plants. The pots were artificially infested with nematodes (RKNi) 2 days after treatment.
APPLICATION: Compounds A and B and comparison Spirotetramat were sprayed as a normal foliar spray with hollow cone nozzles directed onto the plants. The compounds A, B and spirotetramat used were formulated as a suspension concentrate formulation at a dose rate of 100 g/ha. The compounds were diluted to a spray volume of approx […], which was used on the young plants. The treatment was applied when the plants had at least 2 true leaves.
Industry comparison Abamectin as a seed treatment was also included in the trials as a comparison. AVICTA® 500 FS from Syngenta AG was used at a rate of 500 g/L as a flowable concentrate (FS) formulation and applied to the seeds as a slurry to provide a rate of 0.15 mg of active ingredient per seed.
ASSESSMENT: Plants were removed 2 days after foliar spray treatment to assess penetration of the nematode in the roots with a dyeing method. Root galling/cysts were assessed according to standard practice.

[3] = test system: Heterodera schachtii Schmidt (SBCN); test: Pot trial: seed treatment and foliar spray in sugar beets, cysts per root system; settings: sugar beet, 25 days after inoculation
Protocol: POT TRIALS: Seed treatments and Foliar spray in sugar beets (Beta Vulgaris cv Impulse) against root nematodes Heterodera schachtii Schmidt (SBCN)
8×350 ml pots were used per treatment containing 350 ml soil (70% drench soil and 30% sand). 1 Seed per pot were planted into pot soil 0.5 cm deep and allowed to germinate and grow into young plants. Plants were kept under constant conditions of 25° C. during the day and 23° C. during the night with a humidity of 50-60% with 14 hour light periods. The pots were artificially infested with nematodes (SBCN) 7 days after sowing. For inoculation, 3 holes are drilled into the soil and 2 ml suspension of the nematodes per hole are applied.
as §1, with “Compounds B” for “Compounds A”, “compounds B” for “compounds A”, “after sowing (i.e. 7 days after inoculation).” for “after sowing.”, “out 21 days after sowing (i.e. 14 days after inoculation).” for “out 3 weeks later.”
Abamectin was used as a seed treatment. AVICTA® 400 FS from Syngenta AG was used at a rate of 400 g/L as a flowable concentrate (FS) formulation and applied to the seeds as a slurry to provide a rate of 0.6 mg and 1 mg of active ingredient per seed.
ASSESSMENT: Sugar beet plants were harvested 25 days after inoculation. Sugar beet root and shoot weights were assessed according to standard practice. Number of cysts per root system and as a function of root weight were assessed.

[4] = foliar 100 g/ha, first application +14 days after sowing
[5] = foliar 100 g/ha at BBCH 14, artificial infestation 2 days after foliar spray
[6] = seed treatment 0.15 mg/seed at BBCH 00, artificial infestation at crop stage BBCH 14

CCOC(=O)OC1=C(c2c(C)cc(Cl)cc2C)C(=O)NC12CCN(OC)CC2 [Compound A]
Mean tuber weight relative to inoculated check (%), Observed % [1, 4]: 17.0%
performance in comparison to prior art tetramic acid compound spirotetramat [2]: outperformed spirotetramat
% root length in cm compared to check (= 100%) [2, 5]: 204%
Number of root galls per plant [2, 5]: 1

CCOC(=O)OC1=C(c2c(C)cc(Cl)cc2C)C(=O)N(C)C12CCN(OC)CC2 [Compound B]
performance in comparison to prior art tetramic acid compound spirotetramat [2]: outperformed spirotetramat
% root length in cm compared to check (= 100%) [2, 5]: 213%
Number of root galls per plant [2, 5]: 0.33
Efficacy in % of cyst nematodes per root system ([3]; Compound B 100 g/ha foliar): 12%

CCOC(=O)OC1=C(c2cc(C)ccc2C)C(=O)N[C@]12CC[C@@H](OC)CC2 [Spirotetramat]
Mean tuber weight relative to inoculated check (%), Observed % [1, 4]: 30.0%
% root length in cm compared to check (= 100%) [2, 5]: 100%
Number of root galls per plant [2, 5]: 5.83

Abamectin
Mean tuber weight relative to inoculated check (%), Observed % ([1]; seed treatment 0.6 mg/seed at sowing): 6.4%
% root length in cm compared to check (= 100%) [2, 6]: 211%
Number of root galls per plant [2, 6]: 0.33
Efficacy in % of cyst nematodes per root system ([3]; Abamectin 0.6 mg/seed seed treatment): 42%
Efficacy in % of cyst nematodes per root system ([3]; Abamectin 1 mg/seed seed treatment): 60%
